Data from patent publication US9605027B2, “Polypeptides that bound to IL-23 receptor and inhibit binding of IL-23 and cell signaling thereof” (Medical Diagnostic Laboratories, LLC, priority 2011, dated 2017).
Peptide text beside a SMILES is read from it.

Test system: IL-23 induced IL-17F in rat splenocytes
Assay: IL-17F mRNA expression induced by IL-23 in rat splenocytes
Type: cell-based
Conditions: IL-23 200 ng/ml, qRT-PCR; read-out: IC50, inhibition of IL-17F mRNA expression
Protocol: Sprague Dawley (SD) rat spleen was isolated and placed in 3 ml of media (RPMI 1640 with 10% FBS) in a small petri dish (35×10 mm). The rat spleen was placed on a sterile wire mesh screen using sterile forceps. The rat spleen was pushed through the screen with the plunger of a 10 ml syringe into the petri dish. Then, the suspension was mixed by gently pipetting up and down. The cells were spun down at 1,000 rpm for 10 minutes. Red blood cells were lysed by adding a Red Blood Cell lysis buffer. The cell suspension was incubated at room temperature for 5 minutes. The cells were spun down at 1,000 rpm for 10 minutes. The pelleted splenocytes were washed twice with PBS. After washing, the isolated splenocytes were re-suspended in 10 ml of culture media (RPMI 1640 with 10% FBS).
Rat splenocytes (2.5×10^6 cells/ml) were prepared and cultured in RPMI-1640 with 10% FBS for 16 hours at 37° C. Cyclic peptide no. […] The stimulation was carried out for an additional 4 hours. mRNA expression of IL-17F was measured by qRT-PCR (rat IL-17F forward primer (GGC-TCC-TGT-GAA-ACA-ACC-AT)(SEQ ID NO: 180) and rat IL-17F reverse primer (ACA-GAA-ATG-CCC-TGG-TTT-TG) (SEQ ID NO: 181). The PCR was performed under the following conditions: 95° C. for 5 minutes, 95° C. for 30 seconds, 60° C. for 30 seconds 72° C. for 30 seconds, times 40 cycles. […]

IC50: 270 nM
Structure (SMILES): CSCC[C@@H]1NC(=O)[C@H](CCCCN)NC(=O)[C@H](C)NC(=O)[C@H](C)NC(=O)[C@H](CS)NC(=O)[C@H](CC(N)=O)NC(=O)[C@H](CCCCN)NC(=O)[C@H](CC(C)C)NC(=O)[C@H](Cc2c[nH]c3ccccc23)NC(=O)[C@H](Cc2ccc(O)cc2)NC(=O)[C@H](CC(=O)O)NC(=O)[C@H](C(C)C)NC(=O)[C@H](Cc2c[nH]c3ccccc23)NC(=O)[C@H]([C@@H](C)O)NC1=O [2HT AA] (cyclo(AAKMTWVDYWLKNC))
